Experimental findings from patent US20240209011A1, “HETEROAROMATIC PHOSPHONIUM SALTS FOR TREATING CANCER” (FLORATEK PHARMA S.A., priority 2021, published 2024) are described below.

Common to all, as to assay type: cell-based
One assay has as its system SH-SY-5Y. Description: Cell viability assay (CellTiter-Blue/CellTiter-Glow). Particulars: Homo sapiens, SH-SY5Y; brain carcinoma cell line SH-SY-5Y; absolute IC50; 72 h. A digest of the protocol:
(§1)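 Tumour cells were plated at 4,000-20,000 cells/well (up to 60,000 for haematological lines) in RPMI 1640 or DMEM with 10% FCS, then exposed 24 h later to compounds for 72 h at 37 °C. Viability was read by CellTiter-Blue fluorescence or CellTiter-Glo luminescence; absolute IC50 taken at T/C=50%.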

The subject of another assay is U-251. Described as above. Particulars: Homo sapiens; brain carcinoma cell line U-251; absolute IC50; 72 h. The essentials: as §1
For the next assay, the system named is HCC1806. The assay is described as above. The following applies: Homo sapiens; breast carcinoma cell line HCC1806; absolute IC50; 72 h. A digest of the protocol: as §1
For another assay, the system named is MDA-MB-231. Described as above. The following applies: Homo sapiens; breast carcinoma cell line MDA-MB-231; absolute IC50; 72 h. A digest of the protocol: as §1
A further assay relates to OVXF 899. The description is as above. The following applies: ovarian carcinoma cell line OVXF 899; absolute IC50; 72 h. The essentials:
as §1

For assay [1], the system named is brain carcinoma PDX GBM14-CHA. Nature of the assay: PDX-derived cell culture cytotoxicity (CellTiter-Glo). The following applies: 120 h; PDX brain carcinoma GBM14-CHA (FIG. 3); 5 days. As for the experimental part: (§2) PDX-derived cell cultures were obtained from tumors explanted from mice and isolated by mechanical and enzymatic dissociation. […] Cells were harvested and seeded in 96-wells plates at a density of 1.25 to 5×10^3 cells/well for cytotoxicity assays. Cells were incubated 48 h at 37° C. prior to addition of test molecules and vehicle (DMSO, 0.1%) at desired final concentrations. Cell viability was assessed before drugs' addition (To) and 5 days after test molecules addition by measuring ATP cell content using CellTiter-Glo® Luminescent Cell Viability Assay (Promega) according to the manufacturer's instructions. Luciferase activity was measured on a luminometer (PerkinElmer® EnVision™). Each concentration of compounds was tested in triplicate.
(§3) Viability was calculated as a percentage of ATP value compared to vehicle treated controls.
(§4) For PDX primary cell cultures, the tumour tissue was washed with PBS containing antibiotic-antimycotic and non-tumour tissue and necrotic tumour tissues were separated. The tumour tissue was transferred to a new dish and cut into 1-2 mm^3 fragments, resuspended in RPMI-1640 medium and centrifuged at 1,200 rpm for 6 min at room temperature. The pelleted material was resuspended with 15 mL of Tumour Cell Digestion Solution and incubated at 37° C. for 1 hour with agitation. Following further addition of media, centrifugation and passage through a […] cell strainer, the homogenous cell mixture was layered onto 15 mL of Ficoll-Paque PLUS in a 50 mL conical tube and centrifuged for 15 min at 1,600 rpm. The interface cells were collected, washed with media, separated by centrifugation at 1,200 rpm. The cell pellet was resuspended in serum free media supplemented with growth factors. 10,000 cells/wells were plated in a 96 well plate and incubated at 37° C., 5% CO2, 95% air and 100% relative humidity overnight. The cytotoxicity assay was conducted as above. IC50 values represent absolute IC50.
A general note: In ATP-based viability assays light output follows the ATP content of the culture.

Assay [2] relates to small cell lung carcinoma PDX SC6. Described as above. The following applies: 120 h; small cell lung carcinoma PDX SC6 (FIG. 13); 5 days. On the procedure:
as §2, §3, §4

What is called IC50 is the concentration needed to halve the response being measured. The low end stands for higher potency, the high end for lower potency.

As to `O=c1cc(-c2ccc(CCCC[P+](c3ccccc3)(c3ccccc3)c3ccccc3)cc2)oc2c3c(ccc12)OCO3.[Br-]` [SND123, 4-[4-(6-oxo-[1,3]dioxolo[4,5-h]chromen-8-yl)phenyl]butyl-triphenylphosphonium bromide], the IC50 was 4.9 µM in the assay on SH-SY-5Y, 1870 nM with U-251, 2300 nM in the assay on HCC1806 and 2000 nM in the assay with MDA-MB-231.
For `CCNC(=O)Oc1ccc2c(=O)cc(-c3ccc(CCCC[P+](c4ccccc4)(c4ccccc4)c4ccccc4)cc3)oc2c1O.[Br-]` [SND126A, 4-[4-[7-(Ethylcarbamoyloxy)-8-hydroxy-4-oxo-chromen-2-yl]phenyl]butyltriphenylphosphonium bromide], inhibition in the assay on OVXF 899 was half-maximal at 17.6 µM (IC50).
In the case of `COc1c(O)ccc2c(=O)cc(-c3ccc(CCCC[P+](c4ccccc4)(c4ccccc4)c4ccccc4)cc3)oc12.[Br-]` [SND140, (4-(4-(7-hydroxy-8-methoxy-4-oxo-4H-chromen-2-yl)phenyl)butyl)triphenylphosphonium bromide], the IC50 in assay [1] is 6.47 µM; in assay [2], 7.02 µM.
